Test results: US8952024B2, “Herbicidal pyrimidone derivatives” (E I du Pont de Nemours and Company, priority 2009, dated 2015)

Assays:
Assay in all cases: Test D pre-/postemergence plant response
Type in all cases: in vivo
[1] = test system: field bindweed (Convolvulus arvensis)
In short: (§1)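 Greenhouse assay: sown seeds in loam/sand received preemergence spray; simultaneously, emerged seedlings (1- to 4-leaf, 2–18 cm) got postemergence spray of the same surfactant-containing formulation. Rating at 14–21 days by visual comparison with controls, 0 = no effect to 100 = complete control.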

[2] = test system: sowthistle (common sowthistle, Sonchus oleraceous); conditions: Postemergence
In short: as §1

[3] = test system: goosegrass (Eleusine indica)
In short: as §1

[4] = test system: large crabgrass (Digitaria sanguinalis)
In short: as §1

[5] = test system: morningglory (pitted morningglory, Ipomoea lacunosa)
In short: as §1

[6] = test system: guineagrass (Panicum maximum)
In short: as §1

[7] = test system: mallow (common mallow, Malva sylvestris)
In short: as §1

[8] = test system: bluegrass (annual bluegrass, Poa annua)
In short: as §1

[9] = test system: black mustard (Brassica nigra)
In short: as §1

[10] = test system: Surinam grass (Brachiaria decumbens)
In short: as §1

[11] = test system: barnyardgrass (Echinochloa crus-galli)
In short: as §1

[12] = test system: nutsedge (purple nutsedge, Cyperus rotundus)
In short: as §1

[13] = test system: green foxtail (Setaria viridis)
In short: as §1

[14] = test system: itchgrass (Rottboellia cochinchinensis)
In short: as §1

[15] = test system: kochia (Kochia scoparia)
In short: as §1

[16] = test system: chickweed (common chickweed, Stellaria media); conditions: Postemergence
In short: as §1

[17] = test system: signalgrass (broadleaf signalgrass, Brachiaria platyphylla)
In short: as §1

[18] = test system: johnsongrass (Sorghum halepense)
In short: as §1

[19] = Postemergence, 31 g ai/ha, scale 0 to 100
[20] = Postemergence, 62 g ai/ha, scale 0 to 100 (0 no effect, 100 complete control)
[21] = Postemergence, 125 g ai/ha, scale 0 to 100 (0 no effect, 100 complete control)
[22] = Postemergence, 250 g ai/ha, scale 0 to 100 (0 no effect, 100 complete control)
[23] = Preemergence, 62 g ai/ha, scale 0 to 100
[24] = Preemergence, 125 g ai/ha, scale 0 to 100
[25] = Preemergence, 250 g ai/ha, scale 0 to 100
[26] = 62 g ai/ha, scale 0 to 100 (0 no effect, 100 complete control)
[27] = 125 g ai/ha, scale 0 to 100 (0 no effect, 100 complete control)
[28] = 250 g ai/ha, scale 0 to 100 (0 no effect, 100 complete control)

COCCn1c(-c2cc(F)cc(F)c2)ncc(C(=O)C2=C(O)C3CCC(C3)C2=O)c1=O (stereo not drawn) [Compound 243, 2-(3,5-difluorophenyl)-5-[(2-hydroxy-4-oxobicyclo[3.2.1]oct-2-en-3-yl)carbonyl]-3-(2-methoxyethyl)-4(3H)-pyrimidinone]
Plant response rating, Field Bindweed [1, 19]: 65
Plant response rating, Field Bindweed [1, 20]: 70
Plant response rating, Field Bindweed [1, 21]: 70
Plant response rating, Field Bindweed [1, 22]: 70
Plant response rating, Field Bindweed [1, 23]: 100
Plant response rating, Field Bindweed [1, 24]: 100
Plant response rating, Field Bindweed [1, 25]: 100
Plant response rating, Sowthistle ([2]; 31 g ai/ha, scale 0 to 100): 90
Plant response rating, Sowthistle [2, 26]: 90
Plant response rating, Sowthistle [2, 27]: 95
Plant response rating, Sowthistle [2, 28]: 98
Plant response rating, Goosegrass [3, 19]: 65
Plant response rating, Goosegrass [3, 20]: 70
Plant response rating, Goosegrass [3, 21]: 70
Plant response rating, Goosegrass [3, 22]: 75
Plant response rating, Goosegrass [3, 23]: 100
Plant response rating, Goosegrass [3, 24]: 100
Plant response rating, Goosegrass [3, 25]: 100
Plant response rating, Crabgrass, Large [4, 19]: 75
Plant response rating, Crabgrass, Large [4, 20]: 80
Plant response rating, Crabgrass, Large [4, 21]: 85
Plant response rating, Crabgrass, Large [4, 22]: 85
Plant response rating, Crabgrass, Large [4, 23]: 100
Plant response rating, Crabgrass, Large [4, 24]: 100
Plant response rating, Crabgrass, Large [4, 25]: 100
Plant response rating, Morningglory [5, 19]: 75
Plant response rating, Morningglory [5, 20]: 85
Plant response rating, Morningglory [5, 21]: 85
Plant response rating, Morningglory [5, 22]: 85
Plant response rating, Morningglory [5, 24]: 98
Plant response rating, Morningglory [5, 25]: 100
Plant response rating, Guineagrass [6, 19]: 70
Plant response rating, Guineagrass [6, 20]: 75
Plant response rating, Guineagrass [6, 21]: 75
Plant response rating, Guineagrass [6, 22]: 85
Plant response rating, Guineagrass [6, 23]: 100
Plant response rating, Guineagrass [6, 24]: 100
Plant response rating, Guineagrass [6, 25]: 100
Plant response rating, Mallow [7, 19]: 50
Plant response rating, Mallow [7, 20]: 60
Plant response rating, Mallow [7, 21]: 70
Plant response rating, Mallow [7, 22]: 70
Plant response rating, Mallow [7, 23]: 50
Plant response rating, Mallow [7, 24]: 80
Plant response rating, Mallow [7, 25]: 98
Plant response rating, Bluegrass [8, 19]: 5
Plant response rating, Bluegrass [8, 20]: 5
Plant response rating, Bluegrass [8, 21]: 35
Plant response rating, Bluegrass [8, 22]: 35
Plant response rating, Bluegrass [8, 23]: 40
Plant response rating, Bluegrass [8, 24]: 95
Plant response rating, Bluegrass [8, 25]: 100
Plant response rating, Black Mustard [9, 19]: 50
Plant response rating, Black Mustard [9, 20]: 75
Plant response rating, Black Mustard [9, 21]: 98
Plant response rating, Black Mustard [9, 22]: 98
Plant response rating, Black Mustard [9, 23]: 100
Plant response rating, Black Mustard [9, 24]: 100
Plant response rating, Black Mustard [9, 25]: 100
Plant response rating, Surinam Grass [10, 19]: 75
Plant response rating, Surinam Grass [10, 20]: 75
Plant response rating, Surinam Grass [10, 21]: 75
Plant response rating, Surinam Grass [10, 22]: 85
Plant response rating, Surinam Grass [10, 24]: 100
Plant response rating, Surinam Grass [10, 25]: 100
Plant response rating, Barnyardgrass [11, 19]: 75
Plant response rating, Barnyardgrass [11, 20]: 80
Plant response rating, Barnyardgrass [11, 21]: 80
Plant response rating, Barnyardgrass [11, 22]: 90
Plant response rating, Barnyardgrass [11, 23]: 100
Plant response rating, Barnyardgrass [11, 24]: 100
Plant response rating, Barnyardgrass [11, 25]: 100
Plant response rating, Nutsedge, Purple [12, 19]: 20
Plant response rating, Nutsedge, Purple [12, 20]: 25
Plant response rating, Nutsedge, Purple [12, 21]: 25
Plant response rating, Nutsedge, Purple [12, 22]: 50
Plant response rating, Nutsedge, Purple [12, 23]: 20
Plant response rating, Nutsedge, Purple [12, 24]: 100
Plant response rating, Nutsedge, Purple [12, 25]: 100
Plant response rating, Foxtail, Green [13, 19]: 80
Plant response rating, Foxtail, Green [13, 20]: 85
Plant response rating, Foxtail, Green [13, 21]: 90
Plant response rating, Foxtail, Green [13, 22]: 98
Plant response rating, Foxtail, Green [13, 23]: 35
Plant response rating, Foxtail, Green [13, 24]: 100
Plant response rating, Foxtail, Green [13, 25]: 100
Plant response rating, Itchgrass [14, 19]: 75
Plant response rating, Itchgrass [14, 20]: 75
Plant response rating, Itchgrass [14, 21]: 75
Plant response rating, Itchgrass [14, 22]: 85
Plant response rating, Itchgrass [14, 23]: 25
Plant response rating, Itchgrass [14, 24]: 50
Plant response rating, Itchgrass [14, 25]: 100
Plant response rating, Kochia [15, 19]: 50
Plant response rating, Kochia [15, 20]: 60
Plant response rating, Kochia [15, 21]: 70
Plant response rating, Kochia [15, 22]: 75
Plant response rating, Kochia [15, 23]: 80
Plant response rating, Kochia [15, 24]: 100
Plant response rating, Kochia [15, 25]: 100
Plant response rating, Chickweed ([16]; 31 g ai/ha, scale 0 to 100): 35
Plant response rating, Chickweed [16, 26]: 50
Plant response rating, Chickweed [16, 27]: 60
Plant response rating, Chickweed [16, 28]: 70
Plant response rating, Signalgrass [17, 19]: 50
Plant response rating, Signalgrass [17, 20]: 75
Plant response rating, Signalgrass [17, 21]: 75
Plant response rating, Signalgrass [17, 22]: 95
Plant response rating, Signalgrass [17, 24]: 95
Plant response rating, Signalgrass [17, 25]: 100
Plant response rating, Johnsongrass [18, 19]: 70
Plant response rating, Johnsongrass [18, 20]: 70
Plant response rating, Johnsongrass [18, 21]: 70
Plant response rating, Johnsongrass [18, 22]: 75
Plant response rating, Johnsongrass [18, 23]: 100
Plant response rating, Johnsongrass [18, 24]: 100
Plant response rating, Johnsongrass [18, 25]: 100
